Assay [1] addresses T1, Transcriptional regulator MvfR (Pseudomonas aeruginosa PA14, UniProt A0A072ZLE6).
T1 sequence (A0A072ZLE6 whole entry): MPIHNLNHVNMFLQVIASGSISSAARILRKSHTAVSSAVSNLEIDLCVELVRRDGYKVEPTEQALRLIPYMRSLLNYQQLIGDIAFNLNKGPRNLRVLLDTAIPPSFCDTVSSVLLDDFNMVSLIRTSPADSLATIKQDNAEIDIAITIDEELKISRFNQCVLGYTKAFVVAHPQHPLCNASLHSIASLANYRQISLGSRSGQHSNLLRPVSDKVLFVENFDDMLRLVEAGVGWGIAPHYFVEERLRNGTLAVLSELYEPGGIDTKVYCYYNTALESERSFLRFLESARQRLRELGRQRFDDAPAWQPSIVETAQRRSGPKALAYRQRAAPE
Briefly: Binding affinity to Pseudomonas aeruginosa PA14 biotinylated His6SUMO-tagged PqsR expressed in Eschericia coli BL21 (lamda DE3) by isothermal titration calorimetry. (Isothermal titration calorimetry measures the heat released or taken up as one component is titrated into another.)

Assay [2] addresses T1, Transcriptional regulator MvfR. As to the kind of experiment: Binding affinity to Pseudomonas aeruginosa PA14 biotinylated His6SUMO-tagged PqsR expressed in Eschericia coli BL21 (DE3) by surface plasmon resonance spectroscopic analysis. In general terms: In SPR one partner is held on a chip, and binding of the other changes the refractive index at the surface.
The target is the same in assay [3]. As to the kind of experiment: Antagonist activity at Pseudomonas aeruginosa PA14 PqsR expressed in Eschericia coli DH5-alpha assessed as inhibition of PQS-induced protein activation by beta-galactosidase reporter gene assay. Background: Reporter assays use an easily measured gene product as a stand-in for the process of interest.
The target in assay [4] is T2, Transcriptional regulator MvfR (Pseudomonas aeruginosa PA14) (UniProt A0A072ZLE6).
T2 sequence (whole entry): T1 sequence (A0A072ZLE6 whole entry)
As to the kind of experiment: Antagonist activity at Pseudomonas aeruginosa PA14 PqsR assessed as reduction of pyocyanin level by UHPLC-MS/MS analysis.

For assay [5], the target named is T1, Transcriptional regulator MvfR. As to the kind of experiment: Antagonist activity at Pseudomonas aeruginosa PA14 PqsR expressed in pqs gene-deficient Pseudomonas aeruginosa PA14 by beta-galactosidase reporter gene assay.
The test system of assay [6] is Pseudomonas aeruginosa. Briefly: Antibacterial activity against Pseudomonas aeruginosa PA14 at 250 uM after 1 to 8 hrs by spectrophotometer analysis. The class given is functional, organism-based.

Structures are written as SMILES. pEC50, pKd: −log10 of the molar value. The source made the active and inactive calls. The rule behind the calls is not given here.

For the molecule `Nc1nnc(-c2ccc(Cl)cc2)s1`, the results for the pKd in assay [1] and in assay [2] were 5.43 and 5.35, respectively.

Take `Nc1cccc(Br)n1`: the pKd (usually the negative decadic logarithm of the Kd, by convention in mol/L) was 5.00 in assay [1] and 5.17 in assay [2].

`N#Cc1cccc(-c2nnc(N)o2)c1`: in assay [3], the pEC50 (as a rule, the EC50 on a negative log10 scale, so that one unit is a factor of ten) was 4.75.

Turning to `COc1cccc(-c2nnc(N)o2)c1`, in assay [4], the inhibition result is “inactive”.

In the case of `CC(C)(C)c1cccc(-c2nnc(N)o2)c1`, the pKd in assay [1] was 5.51.

`Cc1nnc(-c2cccc(C(F)(F)F)c2)o1`: in assay [1], the pKd is 4.89.

As to `CCCCCCCc1cc(=O)c2cc(C(F)(F)F)ccc2[nH]1`, in assay [4], the inhibition entry is “Active”.

With `NC(=O)c1ccc2ccccc2c1`, the results for the pKd in assay [1] and in assay [2] were 5.74 and 6.10, respectively.

On to `Nc1nnc(-c2cccc(Cl)c2)o1`, for which, in assay [3], the pEC50 was 4.57.

In turn, `CCCCCCCc1[nH]c2ccccc2c(=O)c1O` had a pKd in assay [2] of 6.68.

`CC(C)(C)c1ccc(C(=O)NO)cc1`: the inhibition entry in assay [4] was “Active”.

Regarding `Cc1cccc(-c2nnc(N)o2)c1`, the pEC50 in assay [3] is 4.24. This molecule showed a pKd in assay [1] of 4.91.

The molecule `CC(C)(C)c1ccc(C(N)=O)cc1` had a pKd in assay [1] of 6.05.

As for `Nc1nnc(-c2cccc(Br)c2)o1`, the pEC50 in assay [3] is 5.12.

`NC(=O)c1cccc(Br)c1`: the pKd was 5.12 in assay [1] and 5.17 in assay [2].

On to `Nc1nnc(-c2ccc(Cl)cc2)o1`, for which the pKd in assay [2] is 3.70.

For the molecule `FC(F)(F)c1cccc(-c2nnco2)c1`, the negative logarithm of the EC50 (pEC50) in assay [3] was 3.99. In assay [1], the pKd was 5.19.

In the case of `FC(F)(F)c1cc(-c2cccs2)n[nH]1`, the pKd is 5.07 in assay [1] and 4.97 in assay [2].

For `Nc1nnc(-c2cccc(OC(F)(F)F)c2)o1`, in assay [3], the pEC50 was 4.33.

Regarding `Nc1nnc(-c2cccc(C(F)(F)F)c2)o1`, the pEC50 in assay [5] was 4.41; in assay [3], 5.12. In assay [1], this molecule had a pKd of 5.89. The outcome in assay [6] was inactive.

The values are drawn from ChEMBL document CHEMBL2424512, “Discovery and biophysical characterization of 2-amino-oxadiazoles as novel antagonists of PqsR, an important regulator of Pseudomonas aeruginosa virulence” (J Med Chem, 2013).
